Where two headings read alike, the source gives them in different places.
Tests used:
[1] = Tissue distribution study after oral administration of CA extract in normal and FD rats
Description: UPLC–MS/MS analysis was conducted using the ACQUITY UPLC system (Waters Corp., Milford, MA, United States) equipped with a Xevo–TQ mass spectrometer (Waters Corp., Milford, MA, United States) with an electrospray ionization (ESI) interface and triple quadrupole mass analyzer.
The ACQUITY UPLC® BEH C18 column (2.1 mm × 50 mm, 1.7 μm, Waters, United States) was used for separation and was maintained at 40°C. The mobile phase consisted of 0.1% formic acid in water (A) and 0.1% formic acid–acetonitrile (B) for PK study and 0.2% formic acid in water (A) and 0.2% formic acid–acetonitrile (B) for tissue distribution study. The mobile phase was eluted as a gradient, as follows: 0–0.5 min, 10% B; 0.5–3.0 min, 15% B; 3.0–3.2 min, 25% B; 3.2–4.0 min, 30% B; 4.0–4.5 min, 32% B; 4.5–6.0 min, 90% B; and 6.0 min, 10% B. The flow rate was set at 0.35 mL/min and the injection volume was 2 μL for the PK study and 1 μL for the tissue distribution study.
The four active components of CA were quantified using multiple reaction monitoring under negative ion mode. The following m/z transitions were chosen for quantification: baishouwu benzophenone 301.00→283.00, deacylmetaplexigenin 379.15→361.20, qingyangshengenin 499.20→137.00, syringic acid 197.20→181.95, and puerarin (internal standard, IS) 415.10→267.05. The collision energy was 15, 15, 35, 15, and 35 V, respectively ([Sun et al., 2022]). ESI mode was operated under the following conditions: capillary voltage, 1 kV; desolvation gas (N2), 1000 L/h; collision gas (Ar2), 150 L/h; desolvation temperature, 400°C; and source temperature, 120°C.
(§1) Additionally, stomach and small intestinal tissues were diluted three times to obtain a tissue homogenate. Then, 300 μL of this tissue homogenate was mixed with 30 μL 1% formic acid-water, 20 μL IS, and 1.2 mL acetonitrile. The mixture was then vortexed for 5 min, sonicated for 10 min, and then stored at −20°C for 30 min. Subsequently, the mixture was centrifuged at 14,000 rpm for 10 min. The supernatant obtained was then transferred to another tube and evaporated to dryness at 37°C under nitrogen. The dried residue was reconstituted with 200 μL of the 50% methanol–water, and the centrifugation process was repeated. The obtained supernatant was then used for further analysis.
SD rats were randomly divided into normal and FD groups (n = 30 each) and orally administered 10 mL/kg of CA extract solution. The rats were sacrificed at 10, 30 min, 1, 2, and 4 h after administration (6 rats per time point). Subsequently, their heart, liver, spleen, lung, kidney, brain, small intestine, and stomach were removed. The tissue samples were then washed in saline solution and wiped with filter paper. Subsequently, all tissues were stored at −80°C until analysis.

[2] = PK study: plasma pharmacokinetics after oral administration of CA extract in normal and FD rats (UPLC-MS/MS); format: in vivo; settings: Sprague-Dawley, rat, oral CA extract (0.10 g/mL solution, 10 mL/kg); for AUC(0-inf) / AUC(0-t) / CL/F / Cmax / half-life: n = 6; for Tmax: n = 6, read-out: Tmax; for Vd/F: n = 6, read-out: Vz/F
Description: For PK experiments, an appropriate amount of the CA extract was weighed to prepare a 0.10 g/mL solution using physiological saline. Briefly, 12 SD rats were randomly assigned to normal and FD groups and were orally administered the prepared CA sample (10 mL/kg body weight). For assessment, 0.3 mL of blood was collected into heparinized tubes via the caudal vein before dosing and at 2, 5, 10, 15, 20, 30, and 45 min, and 1, 2, 4, 8, 12, 24, and 48 h after administration. Blood samples were then immediately centrifuged at 4,500 rpm for 15 min, and the obtained plasma samples were stored at −20°C until determination.
The PK parameters were analyzed using the non–compartment analysis using the WinNonLin 8.2 software (Phoenix, United States). All the data were expressed as mean ± standard deviation (SD). The normal and FD groups were compared using independent samples t–test in SPSS 22.0. Results with p values < 0.05 were considered statistically significant.

[3] = Stability of the four compounds in plasma samples (QC samples); settings: n = 5
Description: In a 1.5 mL EP tube, 100 μL of plasma sample was mixed with 10 µL 1% formic acid–water, 10 μL IS (0.2011 μg/mL), and 400 μL acetonitrile. The mixture was then vortexed for 5 min, followed by sonication for 10 min at 40 kHz and centrifugation at 14,000 rpm for 10 min. The supernatant obtained was transferred to another tube and evaporated to dryness under a nitrogen vacuum at 37°C. The residue obtained was reconstituted with 150 μL of the initial mobile phase, and the centrifugation process was repeated. The supernatant thus obtained was then used for further analysis.
Similarly, QC samples of three concentrations (low, medium, and high) were prepared.
The specificity of the method was evaluated by comparing the retention times of analytes and IS in the blank matrix, blank matrix spiked with the four analytes and IS, and the samples after oral administration of CA extract. Calibration curves were constructed by comparing the ratio of peak areas of the four analytes to that of IS versus the concentration of the four analytes. Calibration curves were fitted via linear weighted (1/X ^ 2 ) least–squares regression. The intra–and inter–day precision and accuracy were estimated by analyzing QC samples at different concentrations on the same day and three consecutive validation days, respectively. The extraction recovery was evaluated by determining the peak area of analytes in QC samples compared with that in extracted matrix samples. The relative standard deviation of the extraction recovery of analytes at each level was retained at ≤20.0%. The following parameters of stability were assessed: short–term stability (24 h at room temperature), processed sample stability (24 h at 4°C), freeze–thaw stability (3 cycles), and auto–sampler stability (6 h at room temperature). QC samples of different concentrations were used for stability analysis.

[4] = Stability of the four compounds in tissue homogenate samples (QC samples); settings: mean ± s, n = 5
Description: as §1
The appropriate amount of the reference substance was accurately weighed and dissolved in an appropriate amount of methanol to obtain stock solutions. The concentrations of the resulting stock solution were 0.9996 mg/mL for baishouwu benzophenone, 0.9518 mg/mL for deacylmetaplexigenin, 1.3660 mg/mL for qingyangshengenin, and 0.9898 mg/mL for syringic acid. Accurate volumes of each stock solution were mixed to obtain working solution, which was then serially diluted with methanol to provide standard working solutions. Similarly, QC samples of three concentrations (low, medium, and high) were prepared. All solutions were stored at −20°C for later use.
The following parameters of stability were assessed: short–term stability (24 h at room temperature), processed sample stability (24 h at 4°C), freeze–thaw stability (3 cycles), and auto–sampler stability (6 h at room temperature). QC samples of different concentrations were used for stability analysis.

[5] = high QC (nominal 1666.00 / 3172.53 / 569.17 / 206.21 ng·mL^-1)
[6] = low QC (nominal 52.06 / 49.57 / 8.89 / 1.61 ng·mL^-1)
[7] = medium QC (nominal 208.25 / 396.57 / 71.13 / 25.78 ng·mL^-1)
[8] = Brain homogenate, highest QC (ng·mL^-1): Baishouwu benzophenone 131.10, Syringic acid 320.04, Qingyangshengenin 62.12, Deacylmetaplexigenin 677.19
[9] = Brain homogenate, lowest QC (ng·mL^-1): Baishouwu benzophenone 3.34, Syringic acid 8.18, Qingyangshengenin 1.58, Deacylmetaplexigenin 17.26
[10] = Brain homogenate, middle QC (ng·mL^-1): Baishouwu benzophenone 20.88, Syringic acid 51.14, Qingyangshengenin 9.90, Deacylmetaplexigenin 107.87
[11] = Heart homogenate, highest QC (ng·mL^-1): Baishouwu benzophenone 111.56, Syringic acid 340.93, Qingyangshengenin 350.76, Deacylmetaplexigenin 1522.88
[12] = Heart homogenate, lowest QC (ng·mL^-1): Baishouwu benzophenone 2.66, Syringic acid 8.11, Qingyangshengenin 8.35, Deacylmetaplexigenin 36.24
[13] = Heart homogenate, middle QC (ng·mL^-1): Baishouwu benzophenone 18.96, Syringic acid 57.96, Qingyangshengenin 59.63, Deacylmetaplexigenin 258.89
[14] = Kidney homogenate, highest QC (ng·mL^-1): Baishouwu benzophenone 768.40, Syringic acid 1230.44, Qingyangshengenin 844.98, Deacylmetaplexigenin 2249.71
[15] = Kidney homogenate, lowest QC (ng·mL^-1): Baishouwu benzophenone 9.84, Syringic acid 15.75, Qingyangshengenin 10.82, Deacylmetaplexigenin 28.80
[16] = Kidney homogenate, middle QC (ng·mL^-1): Baishouwu benzophenone 81.96, Syringic acid 131.25, Qingyangshengenin 90.13, Deacylmetaplexigenin 239.97
[17] = Liver homogenate, highest QC (ng·mL^-1): Baishouwu benzophenone 313.75, Syringic acid 268.07, Qingyangshengenin 4484.13, Deacylmetaplexigenin 3093.35
[18] = Liver homogenate, lowest QC (ng·mL^-1): Baishouwu benzophenone 1.77, Syringic acid 22.34, Qingyangshengenin 25.26, Deacylmetaplexigenin 16.38
[19] = Lung homogenate, highest QC (ng·mL^-1): Baishouwu benzophenone 630.29, Syringic acid 662.80, Qingyangshengenin 385.86, Deacylmetaplexigenin 1513.71
[20] = Lung homogenate, lowest QC (ng·mL^-1): Baishouwu benzophenone 17.66, Syringic acid 18.57, Qingyangshengenin 10.81, Deacylmetaplexigenin 42.42
[21] = Lung homogenate, middle QC (ng·mL^-1): Baishouwu benzophenone 105.98, Syringic acid 111.44, Qingyangshengenin 64.88, Deacylmetaplexigenin 254.52
[22] = Small intestine homogenate, highest QC (ng·mL^-1): Baishouwu benzophenone 39.22, Syringic acid 773.28, Qingyangshengenin 1726.39, Deacylmetaplexigenin 1206.41
[23] = Small intestine homogenate, lowest QC (ng·mL^-1): Baishouwu benzophenone 0.46, Syringic acid 9.31, Qingyangshengenin 20.77, Deacylmetaplexigenin 14.52
[24] = Small intestine homogenate, middle QC (ng·mL^-1): Baishouwu benzophenone 4.97, Syringic acid 97.95, Qingyangshengenin 218.68, Deacylmetaplexigenin 152.81
[25] = Spleen homogenate, highest QC (ng·mL^-1): Baishouwu benzophenone 658.88, Syringic acid 752.66, Qingyangshengenin 418.52, Deacylmetaplexigenin 1979.74
[26] = Spleen homogenate, lowest QC (ng·mL^-1): Baishouwu benzophenone 10.98, Syringic acid 12.54, Qingyangshengenin 6.98, Deacylmetaplexigenin 33.00
[27] = Spleen homogenate, middle QC (ng·mL^-1): Baishouwu benzophenone 87.85, Syringic acid 100.35, Qingyangshengenin 55.80, Deacylmetaplexigenin 263.97
[28] = Stomach homogenate, highest QC (ng·mL^-1): Baishouwu benzophenone 47.06, Syringic acid 257.76, Qingyangshengenin 1285.45, Deacylmetaplexigenin 1665.65
[29] = Stomach homogenate, lowest QC (ng·mL^-1): Baishouwu benzophenone 0.63, Syringic acid 3.44, Qingyangshengenin 17.14, Deacylmetaplexigenin 22.21
[30] = Stomach homogenate, middle QC (ng·mL^-1): Baishouwu benzophenone 6.28, Syringic acid 34.37, Qingyangshengenin 171.39, Deacylmetaplexigenin 222.09

CC(=O)c1ccc(O)c(C(=O)c2c(O)ccc(O)c2C)c1O [Baishouwu benzophenone]
tissue with the highest concentration ([1]; FD group): lungs
crossing of the blood-brain barrier ([1]; distribution found in rat brain): could cross the blood-brain barrier
time after oral administration at which almost completely metabolized in tissues ([1]; rat tissues): 4 h
time of peak in most of organ tissues ([1]; rat tissues): 0.17 to 0.5 h
AUC(0-inf) ([2]; FD group rats): 11100 ng·h/mL
AUC(0-t) ([2]; FD group rats): 9820 ± 1300 ng·h/mL
CL/F ([2]; FD group rats): 7.5 mL/min/kg
Cmax ([2]; FD group rats): 5220 ± 440 ng/mL
half-life ([2]; FD group rats): 11 ± 1.85 h
Tmax ([2]; FD group rats): 0.31 ± 0.06 h
Vd/F ([2]; FD group rats): 7.08 ± 1.07 L/kg
AUC(0-inf) ([2]; Normal group rats): 13800 ng·h/mL
AUC(0-t) ([2]; Normal group rats): 12800 ng·h/mL
CL/F ([2]; Normal group rats): 6 mL/min/kg
Cmax ([2]; Normal group rats): 6000 ± 592 ng/mL
half-life ([2]; Normal group rats): 9.14 ± 2.41 h
Tmax ([2]; Normal group rats): 0.26 ± 0.03 h
Vd/F ([2]; Normal group rats): 4.67 ± 0.88 L/kg
Measured concentration, 4°C for 24 h [3, 5]: 1594.23 ± 107.31 ng/mL
Measured concentration, Room temperature for 24 h [3, 5]: 1664.66 ± 169.47 ng/mL
Measured concentration, Three freeze-thaw cycles [3, 5]: 1684.19 ± 146.38 ng/mL
Measured concentration, 4°C for 24 h [3, 6]: 55.65 ± 4.01 ng/mL
Measured concentration, Three freeze-thaw cycles [3, 6]: 56.07 ± 5.75 ng/mL
Measured concentration, Room temperature for 24 h ([3]; low QC (nominal 52.06 / 49.57 / 8.89 / 1.61 ng·mL^-1 for baishouwu benzophenone / deacylmetaplexigenin / qingyangshengenin / syringic acid)): 55.67 ± 5.93 ng/mL
Measured concentration, 4°C for 24 h [3, 7]: 221.19 ± 11.60 ng/mL
Measured concentration, Room temperature for 24 h [3, 7]: 222.20 ± 17.55 ng/mL
Measured concentration, Three freeze-thaw cycles [3, 7]: 221.08 ± 17.98 ng/mL
Auto-sampler for 6 h Measured concentration [4, 8]: 120.63 ± 2.55 ng/mL
Three freeze-thaw cycles Measured concentration [4, 8]: 123.76 ± 3.01 ng/mL
Auto-sampler for 6 h Measured concentration [4, 9]: 3.08 ± 0.01 ng/mL
Three freeze-thaw cycles Measured concentration [4, 9]: 3.02 ± 0.04 ng/mL
Auto-sampler for 6 h Measured concentration [4, 10]: 19.76 ± 0.44 ng/mL
Three freeze-thaw cycles Measured concentration [4, 10]: 20.10 ± 0.34 ng/mL
Auto-sampler for 6 h Measured concentration [4, 11]: 117.44 ± 1.18 ng/mL
Three freeze-thaw cycles Measured concentration [4, 11]: 118.10 ± 1.89 ng/mL
Auto-sampler for 6 h Measured concentration [4, 12]: 2.59 ± 0.05 ng/mL
Three freeze-thaw cycles Measured concentration [4, 12]: 2.47 ± 0.03 ng/mL
Auto-sampler for 6 h Measured concentration [4, 13]: 19.82 ± 0.45 ng/mL
Three freeze-thaw cycles Measured concentration [4, 13]: 19.77 ± 0.41 ng/mL
Auto-sampler for 6 h Measured concentration [4, 14]: 750.99 ± 14.44 ng/mL
Three freeze-thaw cycles Measured concentration [4, 14]: 748.36 ± 12.9 ng/mL
Auto-sampler for 6 h Measured concentration [4, 15]: 9.74 ± 0.44 ng/mL
Three freeze-thaw cycles Measured concentration [4, 15]: 9.58 ± 0.63 ng/mL
Auto-sampler for 6 h Measured concentration [4, 16]: 88.88 ± 5.31 ng/mL
Three freeze-thaw cycles Measured concentration [4, 16]: 87.75 ± 5.24 ng/mL
Auto-sampler for 6 h Measured concentration [4, 17]: 305.22 ± 17.58 ng/mL
Three freeze-thaw cycles Measured concentration [4, 17]: 303.56 ± 16.64 ng/mL
Auto-sampler for 6 h Measured concentration [4, 18]: 1.80 ± 0.19 ng/mL
Three freeze-thaw cycles Measured concentration [4, 18]: 1.86 ± 0.05 ng/mL
Three freeze-thaw cycles Measured concentration ([4]; Liver homogenate, middle QC (ng·mL^-1): Baishouwu benzophenone 27.19, Syringic acid 89.35, Qingyangshengenin 386.62, Deacylmetaplexigenin 268.09): 26.80 ± 1.81 ng/mL
Auto-sampler for 6 h Measured concentration [4, 19]: 717.67 ± 14.53 ng/mL
Three freeze-thaw cycles Measured concentration [4, 19]: 716.31 ± 12.93 ng/mL
Auto-sampler for 6 h Measured concentration [4, 20]: 17.71 ± 1.84 ng/mL
Three freeze-thaw cycles Measured concentration [4, 20]: 17.55 ± 2.16 ng/mL
Auto-sampler for 6 h Measured concentration [4, 21]: 107.37 ± 5.82 ng/mL
Three freeze-thaw cycles Measured concentration [4, 21]: 105.63 ± 6.43 ng/mL
Auto-sampler for 6 h Measured concentration [4, 22]: 38.84 ± 3.48 ng/mL
Three freeze-thaw cycles Measured concentration [4, 22]: 38.30 ± 3.03 ng/mL
Auto-sampler for 6 h Measured concentration [4, 23]: 0.48 ± 0.05 ng/mL
Three freeze-thaw cycles Measured concentration [4, 23]: 0.46 ± 0.04 ng/mL
Auto-sampler for 6 h Measured concentration [4, 24]: 4.71 ± 0.14 ng/mL
Three freeze-thaw cycles Measured concentration [4, 24]: 4.66 ± 0.10 ng/mL
Auto-sampler for 6 h Measured concentration [4, 25]: 684.55 ± 31.57 ng/mL
Three freeze-thaw cycles Measured concentration [4, 25]: 677.57 ± 32.24 ng/mL
Auto-sampler for 6 h Measured concentration [4, 26]: 11.24 ± 0.63 ng/mL
Three freeze-thaw cycles Measured concentration [4, 26]: 11.40 ± 0.76 ng/mL
Auto-sampler for 6 h Measured concentration [4, 27]: 80.95 ± 2.54 ng/mL
Three freeze-thaw cycles Measured concentration [4, 27]: 79.35 ± 1.81 ng/mL
Auto-sampler for 6 h Measured concentration [4, 28]: 43.94 ± 1.72 ng/mL
Three freeze-thaw cycles Measured concentration [4, 28]: 44.41 ± 1.38 ng/mL
Auto-sampler for 6 h Measured concentration [4, 29]: 0.57 ± 0.05 ng/mL
Three freeze-thaw cycles Measured concentration [4, 29]: 0.58 ± 0.07 ng/mL
Auto-sampler for 6 h Measured concentration [4, 30]: 6.13 ± 0.11 ng/mL
Three freeze-thaw cycles Measured concentration [4, 30]: 6.22 ± 0.15 ng/mL

— article PMC10616469, “Pharmacokinetics and tissue distribution of four major bioactive components of Cynanchum auriculatum extract: a UPLC–MS/MS study in normal and functional dyspepsia rats” (Frontiers in Pharmacology, 2023)
